Patent US10568913B2, “Method for generating mature β-like cells” (The University of Western Australia, priority 2013, dated 2020)

How the values were obtained:
[1] = test system: Ngn3+ progenitor-containing E-cad+ cells; test: Insulin-producing (MIPGFP+) cell differentiation from sorted E-cad+ cells of E15.5 MIPGFP mouse pancreas; type: cell-based; conditions: for effect on Nic-induced differentiation: co-culture with Nic 10 mM (FIG. 1g, 5, 13, 15); for promotion of MIPGFP+ insulin-producing cell differentiation by the molecule on its own: compound alone, without Nic, day 4 (FIG. 1g, 5a)
Experimental: Approximately 7,500 E15.5 [at which the number of Ngn3^+ progenitors is peaked] mouse fetuses from both MIPGFP and Ngn3-GPF/RIP-DsRed lines were used for enrichment/purification of Ngn3^+ progenitors. Mouse pancreases were dissected under a stereoscope (Olympus, Tokyo, Japan). Eleven human fetal pancreases were collected from 18-22 week-fetuses (Table 1) and minced. Both mouse and human pancreases were enzymatically dissociated into single cells under aseptic conditions. […] After each incubation with antibodies, cells were washed twice with FACS buffer (0.1% bovine serum albumin in phosphate buffered saline) and finally re-suspended in this buffer containing 1 μg/ml propidium iodide (PI) or 4′,6-diamidino-2-phenylindole (DAPI) for sorting (FACSAria II, Becton Dickson Labware, Bedford). The purity of sorted cells was determined by post-sort analysis.
Sorted β-cell progenitor-enriched cells or Ngn3^+ β-cell progenitors were differentiated in 96-, 12- or 6-well plates (BD Labware). […] Growth factor-reduced Matrigel (200 μg/ml, BD Biosciences) was overlayed onto cells in the presence of various potential regulators. Thyrotropin releasing hormone (TRH, 100 nM) was purchased from Auspep (Melbourne, Australia). […] Cultures were incubated in 10% CO2 90% air at 37° C., for up to 8 days.
The number of β-like cells was directly quantified under a fluorescence microscope. To verify the accuracy of cell count, at least five randomly chosen fields per well were microphotographed under the inverse IX71 Olympus fluorescence microscope (Olympus, Tokyo, Japan) and the number of β-like cells determined with the Image Pro Plus software installed in the computer.

Ngn3+ islet progenitors = test: DsRed+ cell differentiation from purified Ngn3-GFP+ progenitors (Ngn3-GFP/RIP-DsRed mice); type: cell-based, mouse
Description: (§1) Approximately 7,500 E15.5 [at which the number of Ngn3^+ progenitors is peaked] mouse fetuses from both MIPGFP and Ngn3-GPF/RIP-DsRed lines were used for enrichment/purification of Ngn3^+ progenitors. Mouse pancreases were dissected under a stereoscope (Olympus, Tokyo, Japan). Eleven human fetal pancreases were collected from 18-22 week-fetuses (Table 1) and minced. Both mouse and human pancreases were enzymatically dissociated into single cells under aseptic conditions. Rat anti-E-cadherin (E-cad, also known as CD324 or uvomorulin) monoclonal antibody IgG2a (Invitrogen, Carlsbad), Alexa Fluor 647 anti-E-cad (eBioscience), rat anti-integrin α6 subunit (α6, also known as CD49f) mAb IgG2a, phycoerythrin (PE) rat anti-human α6 (Becton Dickson Biosciences, San Jose), PE anti-mouse CD133 (also known as prominin I, eBioscience), biotin rabbit anti-rat immunoglobumins, allophycocyanin (APC) rat anti-mouse CD45 and APC rat anti-mouse TER119 and streptavidin APC-Cy7, streptavidin PE-Texas Red, streptavidin APC (BD Biosciences) or streptavidin Alexa Fluor 750 (Invitrogen), were used. After each incubation with antibodies, cells were washed twice with FACS buffer (0.1% bovine serum albumin in phosphate buffered saline) and finally re-suspended in this buffer containing 1 μg/ml propidium iodide (PI) or 4′,6-diamidino-2-phenylindole (DAPI) for sorting (FACSAria II, Becton Dickson Labware, Bedford). The purity of sorted cells was determined by post-sort analysis. Data presented represented cell samples with over 90% purity.
Sorted β-cell progenitor-enriched cells or Ngn3^+ β-cell progenitors were differentiated in 96-, 12- or 6-well plates (BD Labware). The basal differentiation medium is Dulbecco's Modified Eagle Medium (Invitrogen) with 5.75 or 27.5 mM D-glucose supplemented with 1% B27 (Invitrogen) and 100 μg/ml streptomycin and 100 units/ml penicillin. Growth factor-reduced Matrigel (200 μg/ml, BD Biosciences) was overlayed onto cells in the presence of various potential regulators. […]
The number of β-like cells was directly quantified under a fluorescence microscope. […]

[2] = test system: human islet progenitors (population III); test: Differentiation of FACS-enriched human fetal islet progenitors, immunofluorescence for insulin and glucagon; type: cell-based; conditions: 6 days, 10 mM Nic
Description: as §1, with “After each incubation with antibodies, cells were washed twice with FACS buffer (0.1% bovine serum albumin in phosphate buffered saline) and finally re-suspended in this buffer containing 1 μg/ml propidium iodide (PI) or 4′,6-diamidino-2-phenylindole (DAPI) for sorting (FACSAria II, Becton Dickson Labware, Bedford).” left out, “Data presented represented cell samples with over 90% purity.” left out

MIN6 cells = test: Glucose stimulated insulin secretion in highly passaged MIN6 cells; type: cell-based, mouse; conditions: FIG. 20, 21
Experimental: The differentiated cells were washed twice with warm PBS. After pre-incubation with Krebs-Ringer buffer at 37° C. for 90 min, the cells were incubated at 37° C. for 60 min with basal D-glucose (2.75 mM) or stimulus D-glucose (27.5 mM). Then each conditioned medium was collected to determine the insulin concentration using an insulin ELISA kit (Mercodia AB, Uppsala, Sweden). MIN6 cells were routinely maintained in a published protocol which contains Dulbecco's modified Eagle's medium (DMEM) containing 25 mM glucose, supplemented with 10% fetal calf serum, 2 mM L-glutamine, 25 mM Hepes, and 285 μM 2-mercaptoethanol. MIN6 cells presented in this study were at passages 30-40 (low passage, LP) or passages 60-70 (high passage, HP). All assays used MIN6 grown to 70-80% confluence unless otherwise stated.

Compound	effect on Nic-induced differentiation [1]	promotion of MIPGFP+ insulin-producing cell differentiation by the molecule on its own [1]	other results
6-chloro-2,3,4,9-tetrahydro-1H-carbazo-1-carboxamide [EX527]	did reduce Nic-induced differentiation	did not significantly promote differentiation	–
O=C1Nc2cc(Br)ccc2/C1=C1/Nc2ccccc2/C1=N\O [BIO, (2′Z,3′E)-6-bromoindirubin-3′-oxime]	suppressed or abolished	did not yield	–
C[C@H](NC(=O)Cc1cc(F)cc(F)c1)C(=O)N[C@H](C(=O)OC(C)(C)C)c1ccccc1 [DAPT]	–	did not yield	–
NC(=O)c1ccncc1 [INic, isonicotinamide]	–	–	number of MIPGFP+ cells compared to Nic ([1]; INic 10 mM alone, days 4, 6 and 8): approximately half
NC(=O)c1cccnc1 [Nic, pyridine-3-carboxylic acid amide]	–	–	number of differentiated DsRed+ cells, share of optimal levels (Ngn3+ islet progenitors; Nic added at 24 hr after plating, counted at day 4): approximately 40%; DsRed+ cells, share of all cells by FACS (Ngn3+ islet progenitors; day 4 of culture, 0% at the start): 35%; number of MIPGFP+ cells, fold more in the presence of Nic ([1]; Nic 10 mM, serum-free and feeder-free culture (FIG. 1c,d)): at least 17 fold; α and β cells detected immunochemically in cultured population III [2]: numerous single hormone-positive α and β cells; glucose stimulated insulin secretion (GSIS) in dedifferentiated, highly passaged MIN6 cells (MIN6 cells): regain partial GSIS
O=C(O)C(Cc1c[nH]c2ccccc12)N1C(=O)c2ccccc2C1=O (stereo not drawn) [RG-108, α-(1,3-dihydro-1,3-dioxo-2H-isoindo1-2-yl)-1H-indole-3-propanoic acid]	–	did not yield	–
NC(=O)[C@@H]1CCCN1C(=O)[C@H](Cc1cnc[nH]1)NC(=O)[C@@H]1CCC(=O)N1 [TRH, Thyrotropin releasing hormone]	–	did not yield	–
COc1cc(/C=C/C(=O)CC(=O)/C=C/c2ccc(O)c(OC)c2)ccc1O [curcumin, (E, E)-1,7-bis (4-hydroxy-3-methoxyphenyl)-1,6-heptadiene-3,5-dione]	significantly reduced	–	–
NC(=O)c1ccc[n+]([C@@H]2O[C@H](COP(=O)([O-])O)[C@@H](O)[C@H]2O)c1 [nicotinamide mononucleotide, β-nicotinamide mononucleotide]	did not modify	–	–
O=c1c(O)c(-c2ccc(O)c(O)c2)oc2cc(O)cc(O)c12 [quercetin]	suppressed or abolished	did not yield	–
Oc1ccc(/C=C/c2cc(O)cc(O)c2)cc1 [resveratrol, 5-[(1E)-2-(4-hydroxyphenyl)ethenyl]-1,3-benzenediol]	completely abolished	–	cellular viability ([1]; in combination with Nic): without apparently affecting cellular viability
CCCC(=O)[O-].[Na+] [sodium butyrate]	significantly (p<0.05) reduced	–	–
CC(=O)C(=O)[O-].[Na+] [sodium pyruvate]	significantly inhibited	–	–
CC(/C=C/C(=O)NO)=C\[C@@H](C)C(=O)c1ccc(N(C)C)cc1 [trichostatin A]	significantly (p<0.05) reduced	–	–
C[C@H](NC(=O)Cc1cc(F)cc(F)c1)C(=O)N[C@H]1N=C(c2ccccc2)c2ccccc2N(C)C1=O [γ-secretase inhibitor XXI]	–	did not yield	–
CC(C)C[C@H](NC(=O)[C@H](Cc1ccccc1)C[C@@H](O)[C@H](Cc1ccccc1)NC(=O)OC(C)(C)C)C(=O)N[C@@H](Cc1ccccc1)C(N)=O [γ-secretase inhibitor X]	–	did not yield	–
exendin-4 [Ex4]	–	did not yield	–
